Measured values reported in ChEMBL document CHEMBL1141575, “Preparation and in vitro biological evaluation of tetrapyrrole ethanolamide derivatives as potential anticancer agents” (Bioorg Med Chem Lett, 2008).

Tests used:
[1] = Survival of human MDA-MB cells at 1 uM under deem light after 96 hrs by MTT assay relative to control; assay type: functional; conditions: read-out: Survival
[2] = Survival of human 2780.9S cells at 0.1 uM under deem light after 96 hrs by MTT assay relative to control; assay type: functional; conditions: read-out: Survival
Raji [3] = assay: Survival of human Raji cells at 0.1 uM under deem light after 96 hrs by MTT assay relative to control; assay type: functional; conditions: read-out: Survival
[4] = Survival of human H209 cells at 50 uM under deem light after 96 hrs by MTT assay relative to control; assay type: functional; conditions: NCI-H209, 96 h, read-out: Survival
HeLa [5] = assay: Survival of human HeLa cells at 0.1 uM under deem light after 96 hrs by MTT assay relative to control; assay type: functional; conditions: read-out: Survival
Raji [6] = assay: Survival of human Raji cells at 100 uM under deem light after 96 hrs by MTT assay relative to control; assay type: functional; conditions: read-out: Survival
[7] = Survival of human H209 cells at 0.1 uM under deem light after 96 hrs by MTT assay relative to control; assay type: functional; conditions: NCI-H209, 96 h, read-out: Survival
NCI-H69 [8] = assay: Survival of human H69 cells at 0.1 uM under deem light after 96 hrs by MTT assay relative to control; assay type: functional; conditions: NCI-H69, 96 h, read-out: Survival
[9] = Photohemolysis in human RBC at 250 nM in absence of light; assay type: ADME, cell-based, Erythrocyte; conditions: human red blood cells, read-out: Activity
HeLa [10] = assay: Survival of human HeLa cells at 1 uM under deem light after 96 hrs by MTT assay relative to control; assay type: functional; conditions: read-out: Survival
[11] = Survival of human H209 cells at 1 uM under deem light after 96 hrs by MTT assay relative to control; assay type: functional; conditions: NCI-H209, 96 h, read-out: Survival
SiHa [12] = assay: Survival of human SIHA cells at 50 uM under deem light after 96 hrs by MTT assay relative to control; assay type: functional; conditions: read-out: Survival
NCI-H69 [13] = assay: Survival of human H69 cells at 10 uM under deem light after 96 hrs by MTT assay relative to control; assay type: functional; conditions: NCI-H69, 96 h, read-out: Survival
Raji [14] = assay: Cytotoxicity against human Raji cells under deem light after 96 hrs by MTT assay; assay type: functional, cell-based
K562 [15] = assay: Survival of human K562 cells at 0.1 uM under deem light after 96 hrs by MTT assay relative to control; assay type: functional; conditions: K562, 96 h, read-out: Survival
SiHa [16] = assay: Cytotoxicity against human SIHA cells under deem light after 96 hrs by MTT assay; assay type: functional, cell-based
NCI-H69 [17] = assay: Survival of human H69 cells at 1 uM under deem light after 96 hrs by MTT assay relative to control; assay type: functional; conditions: NCI-H69, 96 h, read-out: Survival
K562 [18] = assay: Survival of human K562 cells at 1 uM under deem light after 96 hrs by MTT assay relative to control; assay type: functional; conditions: K562, 96 h, read-out: Survival
SiHa [19] = assay: Survival of human SIHA cells at 100 uM under deem light after 96 hrs by MTT assay relative to control; assay type: functional; conditions: read-out: Survival
NCI-H69 [20] = assay: Survival of human H69 cells at 50 uM under deem light after 96 hrs by MTT assay relative to control; assay type: functional; conditions: NCI-H69, 96 h, read-out: Survival
NCI-H69 [21] = assay: Survival of human H69 cells at 100 uM under deem light after 96 hrs by MTT assay relative to control; assay type: functional; conditions: NCI-H69, 96 h, read-out: Survival
K562 [22] = assay: Survival of human K562 cells at 100 uM under deem light after 96 hrs by MTT assay relative to control; assay type: functional; conditions: K562, 96 h, read-out: Survival
[23] = Survival of human 2780.9S cells at 100 uM under deem light after 96 hrs by MTT assay relative to control; assay type: functional; conditions: read-out: Survival
K562 [24] = assay: Survival of human K562 cells at 10 uM under deem light after 96 hrs by MTT assay relative to control; assay type: functional; conditions: K562, 96 h, read-out: Survival
NCI-H69 [25] = assay: Cytotoxicity against human H69 cells under deem light after 96 hrs by MTT assay; assay type: functional, cell-based; conditions: NCI-H69, 96 h
Raji [26] = assay: Survival of human Raji cells at 50 uM under deem light after 96 hrs by MTT assay relative to control; assay type: functional; conditions: read-out: Survival
SiHa [27] = assay: Survival of human SIHA cells at 1 uM under deem light after 96 hrs by MTT assay relative to control; assay type: functional; conditions: read-out: Survival
HeLa [28] = assay: Survival of human HeLa cells at 100 uM under deem light after 96 hrs by MTT assay relative to control; assay type: functional; conditions: read-out: Survival
[29] = Survival of human MDA-MB cells at 50 uM under deem light after 96 hrs by MTT assay relative to control; assay type: functional; conditions: read-out: Survival
HeLa [30] = assay: Survival of human HeLa cells at 50 uM under deem light after 96 hrs by MTT assay relative to control; assay type: functional; conditions: read-out: Survival
[31] = Survival of human 2780.9S cells at 1 uM under deem light after 96 hrs by MTT assay relative to control; assay type: functional; conditions: read-out: Survival
[32] = Survival of human H209 cells at 100 uM under deem light after 96 hrs by MTT assay relative to control; assay type: functional; conditions: NCI-H209, 96 h, read-out: Survival
[33] = Photohemolysis in human RBC assessed as concentration required to 50% hemolysis under light exposure for 5 mins; assay type: ADME, cell-based, Erythrocyte; conditions: human red blood cells, read-out: Activity
[34] = Cytotoxicity against human 2780.9S cells under deem light after 96 hrs by MTT assay; assay type: functional, cell-based
[35] = Survival of human 2780.9S cells at 10 uM under deem light after 96 hrs by MTT assay relative to control; assay type: functional; conditions: read-out: Survival
HeLa [36] = assay: Survival of human HeLa cells at 10 uM under deem light after 96 hrs by MTT assay relative to control; assay type: functional; conditions: read-out: Survival
SiHa [37] = assay: Survival of human SIHA cells at 10 uM under deem light after 96 hrs by MTT assay relative to control; assay type: functional; conditions: read-out: Survival
[38] = Cytotoxicity against human MDA-MB cells under deem light after 96 hrs by MTT assay; assay type: functional, cell-based
Daudi = assay: Cytotoxicity against human Daudi cells under deem light after 96 hrs by MTT assay; assay type: functional, cell-based
K562 [39] = assay: Survival of human K562 cells at 50 uM under deem light after 96 hrs by MTT assay relative to control; assay type: functional; conditions: K562, 96 h, read-out: Survival
Raji [40] = assay: Survival of human Raji cells at 10 uM under deem light after 96 hrs by MTT assay relative to control; assay type: functional; conditions: read-out: Survival
[41] = Survival of human MDA-MB cells at 100 uM under deem light after 96 hrs by MTT assay relative to control; assay type: functional; conditions: read-out: Survival
[42] = Survival of human MDA-MB cells at 0.1 uM under deem light after 96 hrs by MTT assay relative to control; assay type: functional; conditions: read-out: Survival
Raji [43] = assay: Survival of human Raji cells at 1 uM under deem light after 96 hrs by MTT assay relative to control; assay type: functional; conditions: read-out: Survival
[44] = Photohemolysis in human RBC at 190 nM under exposure to light for 10 mins; assay type: ADME, cell-based, Erythrocyte; conditions: human red blood cells, read-out: Activity
[45] = Survival of human H209 cells at 10 uM under deem light after 96 hrs by MTT assay relative to control; assay type: functional; conditions: NCI-H209, 96 h, read-out: Survival
HeLa [46] = assay: Cytotoxicity against human HeLa cells under deem light after 96 hrs by MTT assay; assay type: functional, cell-based
[47] = Photohemolysis in human RBC assessed as concentration required to 50% hemolysis under light exposure for 10 mins; assay type: ADME, cell-based, Erythrocyte; conditions: human red blood cells, read-out: Activity
[48] = Survival of human 2780.9S cells at 50 uM under deem light after 96 hrs by MTT assay relative to control; assay type: functional; conditions: read-out: Survival
K562 [49] = assay: Cytotoxicity against human K562 cells under deem light after 96 hrs by MTT assay; assay type: functional, cell-based; conditions: K562, 96 h
[50] = Survival of human MDA-MB cells at 10 uM under deem light after 96 hrs by MTT assay relative to control; assay type: functional; conditions: read-out: Survival

SMILES: C=Cc1c(C)c2cc3nc(c(CC(=O)OC)c4[nH]c(cc5nc(cc1[nH]2)C(C)=C5CC)c(C)c4C(=O)NCCO)C(CCC(=O)OC)C3C (stereo unspecified) [PHEOPHORBIDE A ETHANOLAMIDE]
- viability at 1 µM [1]: 121%
- viability at 0.1 µM [2]: 98.8%
- viability at 0.1 µM (Raji [3]): 118%
- viability at 50 µM [4]: 59.4%
- viability at 0.1 µM (HeLa [5]): 126%
- viability at 100 µM (Raji [6]): 3.3%
- viability at 0.1 µM [7]: 102%
- viability at 0.1 µM (NCI-H69 [8]): 95.7%
- hemolysis at 0.25 µM [9]: 17%
- viability at 1 µM (HeLa [10]): 114%
- viability at 1 µM [11]: 102%
- viability at 50 µM (SiHa [12]): 1.2%
- viability at 10 µM (NCI-H69 [13]): 98.4%
- IC50 (Raji [14]): 35 µM
- viability at 0.1 µM (K562 [15]): 129%
- IC50 (SiHa [16]): 35 µM
- viability at 1 µM (NCI-H69 [17]): 101%
- viability at 1 µM (K562 [18]): 113%
- viability at 100 µM (SiHa [19]): 1.1%
- viability at 50 µM (NCI-H69 [20]): 58.7%
- viability at 100 µM (NCI-H69 [21]): 14.4%
- viability at 100 µM (K562 [22]): 2.9%
- viability at 100 µM [23]: 1.7%
- viability at 10 µM (K562 [24]): 115%
- IC50 (NCI-H69 [25]): 55 µM
- viability at 50 µM (Raji [26]): 2.5%
- viability at 1 µM (SiHa [27]): 97.8%
- viability at 100 µM (HeLa [28]): 7.8%
- viability at 50 µM [29]: 1.6%
- viability at 50 µM (HeLa [30]): 6.3%
- viability at 1 µM [31]: 117%
- viability at 100 µM [32]: 5.2%
- HC50 at 5 min [33]: 80 nM
- IC50 [34]: 35 µM
- viability at 10 µM [35]: 99%
- viability at 10 µM (HeLa [36]): 113%
- viability at 10 µM (SiHa [37]): 99.9%
- IC50 [38]: 35 µM
- IC50 (Daudi): 35 µM
- viability at 50 µM (K562 [39]): 6.1%
- viability at 10 µM (Raji [40]): 121%
- viability at 100 µM [41]: 1.6%
- viability at 0.1 µM [42]: 110%
- viability at 1 µM (Raji [43]): 119%
- hemolysis at 10 min, 0.19 µM [44]: 100%
- viability at 10 µM [45]: 106%
- IC50 (HeLa [46]): 35 µM
- HC50 at 10 min [47]: 140 nM
- viability at 50 µM [48]: 1.7%
- IC50 (K562 [49]): 35 µM
- viability at 10 µM [50]: 107%
